Results from patent US20090143279A1 (priority 2007, published 2009).
Like-named read-outs stand apart in the source and are kept apart here.

Columns and labels:
[1] = test system: mitochondrial membrane potential; format: cell-based, mouse
[2] = test system: mtOXPHOS transcripts; format: cell-based, mouse
[3] = test system: cellular dehydrogenase activity
[4] = test system: cytochrome c; format: cell-based, mouse
[5] = test system: OXPHOS gene expression; format: cell-based, mouse
[6] = test system: reactive oxygen species; format: cell-based, mouse
[7] = test system: nuOXPHOS transcripts; format: cell-based, mouse
[8] = test system: C2C12 myotubes
[9] = composite Z-score vs mock-treated (DMSO) wells, Conc 20 μM
[10] = Conc 20 μM, normalized score vs mock-treated (DMSO) wells
[11] = composite Z-score vs DMSO, Conc 20 μM
[12] = composite Z-score vs DMSO, Conc 20.38 μM
[13] = composite Z-score vs DMSO wells, Conc 20 μM
[14] = normalized composite Z-score vs mock-treated (DMSO) wells, Conc 20 μM
[15] = 20 μM, composite Z-score vs DMSO

Sequence of cytochrome c (P62897 whole entry): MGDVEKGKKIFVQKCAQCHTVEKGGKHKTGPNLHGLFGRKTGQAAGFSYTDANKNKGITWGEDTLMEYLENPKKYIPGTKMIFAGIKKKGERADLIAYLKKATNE

Compound: COc1cc2ccc(=O)oc2c(OC)c1OC [fraxidin methyl ether]
- ΔΨm [1, 9]: −0.713
- mitoOX [2, 9]: −0.103
- MTT [3, 9]: −2.013
- cyt c [4, 9]: −0.098
- GE-HTS [5, 9]: −0.124
- ROS [6, 9]: 0.276
- nucOX [7, 9]: −0.104
- Viability [8, 9]: −1.325

Compound: COc1ccccc1/C=C/C(=O)O [coumarinic acid methyl ether]
- ΔΨm (composite Z-score) [1]: −1.070
- mitoOX (composite Z-score) [2]: 0.383
- MTT (composite Z-score) [3]: −2.099
- cyt c (composite Z-score) [4]: 0.170
- GE-HTS (composite Z-score) [5]: 0.143
- ROS (composite Z-score) [6]: 0.917
- nucOX (composite Z-score) [7]: 0.031
- Viability (composite Z-score) [8]: −0.844

Compound: CC(=O)O[C@@H]1C[C@H]2C(C)(C)CCC(=O)[C@]2(C)[C@H]2CC[C@@]3(C)[C@H](c4ccoc4)OC(=O)[C@H]4O[C@]43[C@@]21C [2,3-dihydroisogedunin]
- ΔΨm (composite Z-score) [1, 10]: 0.221
- mitoOX (composite Z-score) [2, 10]: −0.449
- MTT (composite Z-score) [3, 10]: −1.287
- cyt c (composite Z-score) [4, 10]: 0.184
- GE-HTS (composite Z-score) [5, 10]: −0.471
- ROS (composite Z-score) [6, 10]: 0.780
- nucOX (composite Z-score) [7, 10]: −0.444
- Viability (composite Z-score) [8, 10]: 0.804

Compound: OC[C@H]1O[C@@H](n2cnc3c(NCc4ccco4)ncnc32)[C@H](O)[C@@H]1O [kinetin riboside]
- ΔΨm [1, 11]: −1.350
- mitoOX [2, 11]: 0.750
- MTT [3, 11]: −4.309
- cyt c [4, 11]: −2.612
- GE-HTS [5, 11]: 0.882
- ROS [6, 11]: −2.722
- nucOX [7, 11]: 0.853
- Viability [8, 11]: −1.883

Compound: CC(C)=CCc1c(O)cc2oc(C)cc(=O)c2c1O [peucenin]
- ΔΨm [1, 9]: −0.057
- mitoOX [2, 9]: 0.361
- MTT [3, 9]: −1.695
- cyt c [4, 9]: 0.494
- GE-HTS [5, 9]: 0.148
- ROS [6, 9]: −0.014
- nucOX [7, 9]: 0.051
- Viability [8, 9]: −0.906

Compound: COc1ccc(-c2c(O)c3c(OC)c4c(cc3oc2=O)OC(C)(C)CC4)cc1 [dihydrorobustic acid, reference compound]
- ΔΨm [1, 11]: 0.000
- mitoOX [2, 11]: −0.701
- MTT [3, 11]: −0.780
- cyt c [4, 11]: 0.757
- GE-HTS [5, 11]: −0.836
- ROS [6, 11]: −0.115
- nucOX [7, 11]: −0.849
- Viability [8, 11]: −0.721

Compound: C=C[C@@](C)(O)CC[C@H]1C(=C)C[C@H](O)[C@H]2C(C)(C)CCC[C@]12C [larixol]
- ΔΨm (composite Z-score) [1, 10]: −0.141
- mitoOX (composite Z-score) [2, 10]: −0.552
- MTT (composite Z-score) [3, 10]: −0.221
- cyt c (composite Z-score) [4, 10]: 0.944
- GE-HTS (composite Z-score) [5, 10]: −0.507
- ROS (composite Z-score) [6, 10]: 1.068
- nucOX (composite Z-score) [7, 10]: −0.466
- Viability (composite Z-score) [8, 10]: 0.085

Compound: COC1=C(O)C(=O)c2c(cc3oc(C(C)=O)c(O)c3c2O)C1=O [rhodocladonic acid]
- ΔΨm [1, 11]: 0.068
- mitoOX [2, 11]: 0.072
- MTT [3, 11]: −1.057
- cyt c [4, 11]: 1.150
- GE-HTS [5, 11]: 0.294
- ROS [6, 11]: 0.733
- nucOX [7, 11]: 0.393
- Viability [8, 11]: −0.416

Compound: C[C@@]12C(=O)OC(=O)[C@]1(C)[C@H]1CC[C@@H]2O1 [cantharidin]
- ΔΨm [1, 11]: −2.513
- ΔΨm [1, 12]: −2.722
- mitoOX [2, 11]: 2.498
- mitoOX [2, 12]: 0.310
- MTT [3, 11]: −5.729
- MTT [3, 12]: −5.122
- cyt c [4, 11]: −5.284
- cyt c [4, 12]: −5.104
- GE-HTS [5, 11]: 1.196
- GE-HTS [5, 12]: 0.217
- ROS [6, 11]: −2.764
- ROS [6, 12]: −2.786
- nucOX [7, 11]: 0.477
- nucOX [7, 12]: 0.144
- Viability [8, 11]: −4.063
- Viability [8, 12]: −4.714

Compound: COc1c2c(cc3c1OCO3)CC[N+](C)=C2 [cotarnine]
- ΔΨm [1, 9]: −1.103
- mitoOX [2, 9]: −0.151
- MTT [3, 9]: −0.587
- cyt c [4, 9]: 0.068
- GE-HTS [5, 9]: 0.049
- ROS [6, 9]: −0.007
- nucOX [7, 9]: 0.159
- Viability [8, 9]: −0.398

Compound: CCc1nc(N)nc(N)c1-c1ccc(Cl)cc1 [pyrimethamine]
- ΔΨm [1, 13]: −0.696
- mitoOX [2, 13]: −0.825
- MTT [3, 13]: −1.810
- cyt c [4]: 1.048
- cyt c [4, 13]: −0.306
- GE-HTS [5, 13]: −0.657
- ROS [6, 13]: 0.329
- nucOX [7, 13]: −0.526
- Viability [8, 13]: 0.994

Compound: NCCCCCN [cadaverine]
- ΔΨm [1, 11]: −0.730
- mitoOX [2, 11]: −0.205
- MTT [3, 11]: −0.915
- cyt c [4, 11]: −0.135
- GE-HTS [5, 11]: −0.553
- ROS [6, 11]: 0.160
- nucOX [7, 11]: −0.667
- Viability [8, 11]: −1.003

Compound: C=C1C(=O)O[C@@H]2C[C@@]3(C)CCC[C@H](C)C3=C[C@H]12 [helenine]
- ΔΨm [1, 11]: −3.676
- mitoOX [2, 11]: −1.624
- MTT [3, 11]: −6.498
- cyt c [4, 11]: −5.312
- GE-HTS [5, 11]: −2.156
- ROS [6, 11]: −2.409
- nucOX [7, 11]: −2.240
- Viability [8, 11]: −4.599

Compound: CC[C@@H](C)C(=O)O[C@H]1[C@H](O)[C@H]2[C@@H](CN3C[C@@H](C)CC[C@H]3[C@@]2(C)O)[C@@H]2C[C@]34O[C@]5(O)[C@@H](OC(=O)[C@@](C)(O)CC)CC[C@@]3(C)[C@@H]5[C@@H](OC(C)=O)[C@@H](OC(C)=O)[C@H]4[C@@]21O [protoveratrine A]
- ΔΨm [1, 11]: 0.394
- mitoOX [2, 11]: −1.108
- MTT [3, 11]: −0.100
- cyt c [4, 11]: 1.155
- GE-HTS [5, 11]: −1.106
- ROS [6, 11]: −0.267
- nucOX [7, 11]: −0.978
- Viability [8, 11]: 0.243

Compound: COc1ccc(-c2coc3c(OC)c(OC)ccc3c2=O)cc1 [retusin dimethyl ether]
- ΔΨm (composite Z-score) [1]: 0.378
- mitoOX (composite Z-score) [2]: −0.331
- MTT (composite Z-score) [3]: −1.263
- cyt c (composite Z-score) [4]: −0.199
- GE-HTS (composite Z-score) [5]: −0.135
- ROS (composite Z-score) [6]: 0.069
- nucOX (composite Z-score) [7]: −0.033
- Viability (composite Z-score) [8]: 0.317

Compound: NCCc1ccc(S(=O)(=O)F)cc1 [4-aminoethylbenzenesulfonyl fluoride]
- ΔΨm [1, 11]: −0.356
- mitoOX [2, 11]: 0.018
- MTT [3, 11]: −1.406
- cyt c [4, 11]: −0.485
- GE-HTS [5, 11]: −0.016
- ROS [6, 11]: 1.081
- nucOX [7, 11]: −0.045
- Viability [8, 11]: −0.304

Compound: COC(=O)c1c(OC)cc2c(c1C)Oc1c(Cl)c(O)c(Cl)c(C)c1C(=O)O2 [gangaleoidin]
- ΔΨm [1, 14]: −1.233
- mitoOX [2, 14]: −0.310
- MTT [3, 14]: −1.213
- cyt c [4, 14]: −0.876
- GE-HTS [5, 14]: −0.512
- ROS [6, 14]: 1.356
- nucOX [7, 14]: −0.587
- Viability [8, 14]: 0.889

Compound: COc1ccc(-c2cc(=O)c3c(O)cc(O)cc3o2)cc1O [diosmetin]
- ΔΨm [1, 14]: −2.701
- mitoOX [2, 14]: −0.134
- MTT [3, 14]: −1.922
- cyt c [4, 14]: −0.666
- GE-HTS [5, 14]: −0.892
- ROS [6, 14]: −0.014
- nucOX [7, 14]: −1.158
- Viability [8, 14]: 0.174

Compound: CO/N=C(\C(=O)N[C@@H]1C(=O)N2C(C(=O)O)=C(COC(N)=O)CS[C@H]12)c1ccco1 [cefuroxime]
- ΔΨm [1, 11]: −0.358
- mitoOX [2, 11]: 0.699
- MTT [3, 11]: −0.536
- cyt c [4, 11]: −0.495
- GE-HTS [5, 11]: 0.816
- ROS [6, 11]: 0.366
- nucOX [7, 11]: 0.790
- Viability [8, 11]: −0.846

Compound: COc1c(CC(=O)c2cc3c(cc2O)OC(C)(C)C(O)C3)ccc2c1C=CC(C)(C)O2 (centres unmarked) [dihydromunduletone]
- ΔΨm [1, 14]: 2.250
- mitoOX [2, 14]: −1.248
- MTT [3, 14]: −0.805
- cyt c [4, 14]: −0.146
- GE-HTS [5, 14]: −1.331
- ROS [6, 14]: −0.049
- nucOX [7, 14]: −1.276
- Viability [8, 14]: 1.580

Compound: C=C1C2CC[C@@]3(C)[C@H](c4ccoc4)OC(=O)C[C@]13O[C@H]1C[C@H](OC(C)=O)C(C)(C)[C@H](CC(=O)OC)[C@@]21C
- ΔΨm (composite Z-score) [1, 10]: −0.388
- mitoOX (composite Z-score) [2, 10]: 1.332
- MTT (composite Z-score) [3, 10]: −0.881
- cyt c (composite Z-score) [4, 10]: −0.069
- GE-HTS (composite Z-score) [5, 10]: 0.772
- ROS (composite Z-score) [6, 10]: −0.319
- nucOX (composite Z-score) [7, 10]: 0.446
- Viability (composite Z-score) [8, 10]: −0.316

Compound: 1,2alpha-epoxydeacetoxydihydrogedunin
- ΔΨm [1, 14]: 0.210
- mitoOX [2, 14]: −0.468
- MTT [3, 14]: −2.000
- cyt c [4, 14]: −0.224
- GE-HTS [5, 14]: −0.921
- ROS [6, 14]: 3.350
- nucOX [7, 14]: −1.080
- Viability [8, 14]: 0.074

Compound: CCCC(=O)O[C@]1(C(=O)CO)CC[C@H]2[C@@H]3CCC4=CC(=O)CC[C@]4(C)[C@H]3[C@@H](O)C[C@@]21C [hydrocortisone butyrate]
- ΔΨm [1, 15]: −0.808
- mitoOX [2, 15]: 0.916
- MTT [3, 15]: −0.932
- cyt c [4, 15]: −0.064
- GE-HTS [5, 15]: 0.666
- ROS [6, 15]: 1.234
- nucOX [7, 15]: 0.514
- Viability [8, 15]: −1.654

Compound: CC(C)CCC[C@@H](C)[C@H]1CC[C@H]2[C@@H]3C[C@@H](O)[C@@]4(O)C[C@@H](O)CC[C@]4(C)[C@H]3CC[C@]12C [cholestan-3beta,5alpha,6beta-triol]
- ΔΨm (composite Z-score) [1, 10]: −0.575
- mitoOX (composite Z-score) [2, 10]: 0.074
- MTT (composite Z-score) [3, 10]: 0.120
- cyt c (composite Z-score) [4, 10]: 0.815
- GE-HTS (composite Z-score) [5, 10]: 0.382
- ROS (composite Z-score) [6, 10]: 1.000
- nucOX (composite Z-score) [7, 10]: 0.523
- Viability (composite Z-score) [8, 10]: −0.869

Compound: C[C@]12CCC3c4ccc(OC(=O)c5ccccc5)cc4CCC3C1CCC2=O (some centres unmarked) [estrone benzoate]
- ΔΨm [1, 11]: −0.277
- mitoOX [2, 11]: −0.179
- MTT [3, 11]: −0.807
- cyt c [4, 11]: 0.406
- GE-HTS [5, 11]: 0.061
- ROS [6, 11]: 0.210
- nucOX [7, 11]: 0.190
- Viability [8, 11]: 0.154
